In assay [1] the target is recombinant human mPGES-1 (Homo sapiens (Human), UniProt O14684). The assay can be described thus: mPGES-1 enzyme assay (HTRF detection of PGE2). It counts as biochemical. The note with it: recombinant human mPGES-1 microsomes, PGH2 2 μM, 60 seconds; read-out: mPGES-1 inhibitory effect IC50 in the enzyme assay. The method in brief: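 Microsomes from E. coli expressing recombinant human mPGES-1 (~0.5 μg protein/well) in 0.1 M phosphate pH 7.4 with 2.5 mM GSH, pre-incubated with compound 25 min at room temperature. PGH2 (2 μM final) added, reaction stopped with FeCl2 after 60 s; PGE2 quantified by HTRF (665/620 ratio) against a calibration curve, IC50 by nonlinear regression after background subtraction.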
Chain of recombinant human mPGES-1 (O14684 whole entry): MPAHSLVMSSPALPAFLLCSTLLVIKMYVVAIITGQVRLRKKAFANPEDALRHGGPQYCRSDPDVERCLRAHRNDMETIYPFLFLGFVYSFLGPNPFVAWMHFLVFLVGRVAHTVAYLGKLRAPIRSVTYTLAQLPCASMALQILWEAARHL
(In general: TR-FRET usually uses a lanthanide donor and a delayed reading to cut background.)

A further assay has as its target mPGES-1 in A549 cells (Homo sapiens (Human), UniProt O14684). The assay can be described thus: A549 cell-based assay (PGE2 formation, 50% human serum). The note with it: IL-1β 5 ng/ml, 10 nM arachidonic acid, 20-24 h, read-out: mPGES-1 inhibitory effect IC50 in the cell assay. The method in brief: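 PGE2 release, read by HTRF and set to 100% for vehicle, gave IC50s from 6-8 point titrations. Human A549 cells were exposed to compound for 20-24 h in medium with 50% human serum, with IL-1β (5 ng/ml) and arachidonic acid (10 nM) as stimulus.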

Some results are limits rather than exact numbers.

Chain of mPGES-1 in A549 cells (O14684 whole entry): as above

Broadly, the IC50 is the midpoint of a concentration-inhibition curve. Turning to `CN(c1cc2c(cc1C(=O)N[C@H]1CC[C@H](C(F)(F)F)CC1)nc(Nc1c(Cl)ccc(CNC(=O)C(C)(C)C)c1Cl)n2C)C1CCS(=O)(=O)C1` (stereo partly drawn) [Example 119, N-(trans-4-Trifluoromethyl-cyclohexyl)-2-{2,6-dichloro-3-[(2,2-dimethyl-propionylamino)-methyl]-phenylamino}-6-[N-methyl-N-(1,1-dioxo-tetrahydro-thiophen-3-yl)-amino]-1-methyl-1H-benzimidazole-5-carboxylic acid amide], the IC50 in assay [1] was 2 nM; at mPGES-1 in A549 cells it was 1 nM.

For `Cn1c(Nc2c(Cl)ccc(CNC(=O)C(C)(C)C)c2Cl)nc2cc(C(=O)N[C@H]3CC[C@H](C(F)(F)F)CC3)c(N3CCS(=O)(=O)CC3)cc21` [Example 130], the IC50 in assay [1] is 2 nM; on mPGES-1 in A549 cells, 7 nM.

Consider `Cn1c(Nc2c(Cl)ccc(CNC(=O)C(C)(C)C)c2Cl)nc2cc(C(=O)N[C@H]3CC[C@H](C(F)(F)F)CC3)c(N3CC4CCCC4C3)cc21` (some centres unmarked) [Example 101], for which the half-inhibitory concentration (IC50) in assay [1] turned out to be 2 nM; on mPGES-1 in A549 cells, 1.5 nM.

As for `Cn1c(Nc2c(Cl)ccc(CNC(=O)C(C)(C)C)c2Cl)nc2cc(C(=O)N[C@H]3CC[C@H](C(F)(F)F)CC3)c(NCCCO)cc21` [Example 85], the half-maximal inhibitory concentration (IC50) amounted to 15 nM in assay [1] and 86 nM on mPGES-1 in A549 cells.

For the compound `Cn1c(Nc2c(Cl)ccc(CNC(=O)C(C)(C)C)c2Cl)nc2cc(C(=O)Nc3ccc(OC(F)(F)F)cc3)c(N3CCC(C(F)(F)F)CC3)cc21` [Example 57], the IC50 (in assay [1]; at mPGES-1 in A549 cells) was 1 nM each time.

For the compound `Cn1c(Nc2c(F)ccc(CNC(=O)C(C)(C)C)c2F)nc2cc(C(=O)N[C@H]3CC[C@H](C(F)(F)F)CC3)c(N3CCC(F)CC3)cc21` [Example 12], the half-maximal inhibitory concentration (IC50) (in assay [1]; at mPGES-1 in A549 cells) was 3 nM in each case.

Take `Cn1c(Nc2c(Cl)ccc(CNC(=O)C(C)(C)C)c2Cl)nc2cc(C(=O)Nc3cccc(C(F)(F)F)n3)c(N3CC[C@@H](F)C3)cc21` [Example 245]: the half-inhibitory concentration (IC50) in assay [1] came to 3.8 nM; on mPGES-1 in A549 cells it was 2.4 nM.

Take `Cn1c(Nc2c(Cl)ccc(CNC(=O)C(C)(C)C)c2Cl)nc2cc(C(=O)NCC(F)(F)F)c(N3CCC(F)CC3)cc21` [Example 10]: the results for the half-maximal inhibitory concentration (IC50) (in assay [1]; at mPGES-1 in A549 cells) were 2 nM and 1 nM, respectively.

`CC(C)(O)Cn1c(Nc2c(Cl)ccc(CNC(=O)C(C)(C)C)c2Cl)nc2cc(C(=O)Nc3ccc(OC(F)(F)F)cc3)c(N3CCOCC3)cc21` [Example 166, N-(4-Trifluoromethoxy-phenyl)-2-{2,6-dichloro-3-[(2,2-dimethyl-propionylamino)-methyl]-phenylamino}-6-[morpholinyl]-1-(2-hydroxy-2-methyl-propyl)-1H-benzimidazole-5-carboxylic acid amide]: the half-inhibitory concentration (IC50) in assay [1] amounted to 2 nM; at mPGES-1 in A549 cells, 12 nM.

With `Cc1nc2c(s1)CN(c1cc3c(cc1C(=O)NCC(F)(F)F)nc(Nc1c(Cl)ccc(CNC(=O)C(C)(C)C)c1Cl)n3C)C2` [Example 33], the figures for the concentration for half-maximal inhibition (IC50) (in assay [1]; at mPGES-1 in A549 cells) were 3 nM and 8 nM, respectively.

`Cn1c(Nc2c(Cl)ccc(CNC(=O)C(C)(C)C)c2Cl)nc2cc(C(=O)Nc3ccc(F)c(Cl)c3)c(N3CCC(C(F)(F)F)CC3)cc21` [Example 54, N-(3-Chloro-4-fluoro-phenyl)-2-{2,6-dichloro-3-[(2,2-dimethyl-propionylamino)-methyl]-phenylamino}-6-[4-trifluoromethyl-piperidinyl]-1-methyl-1H-benzimidazole-5-carboxylic acid amide]: the IC50 was determined as 2 nM in assay [1] and 1.4 nM at mPGES-1 in A549 cells.

Turning to `Cn1c(Nc2c(Cl)ccc(CNC(=O)C(C)(C)C)c2Cl)nc2cc(C(=O)Nc3cccc(OC(F)(F)F)c3)c(N3CCC(F)(F)C3)cc21` [Example 40], the results for the IC50 (in assay [1]; at mPGES-1 in A549 cells) were 2 nM and under 1 nM, respectively.

In the case of `Cn1c(Nc2c(Cl)ccc(CNC(=O)C(C)(C)C)c2Cl)nc2cc(C(=O)Nc3ccc(OC(F)(F)F)cc3)c(N3CC4CC4C3)cc21` (centres unmarked) [Example 64], the IC50 stood at 3 nM in assay [1] and 2.6 nM on mPGES-1 in A549 cells.

For the compound `Cn1c(Nc2c(Cl)ccc(CNC(=O)C(C)(C)C)c2Cl)nc2cc(C(=O)NCCC(F)(F)F)c(N3CC4CC4C3)cc21` (centres unmarked) [Example 135], the 50% inhibitory concentration (IC50) in assay [1] stood at 3 nM; on mPGES-1 in A549 cells it was 5 nM.

`CN(CC#N)c1cc2c(cc1C(=O)N[C@H]1CC[C@H](C(F)(F)F)CC1)nc(Nc1c(Cl)ccc(CNC(=O)C(C)(C)C)c1Cl)n2C` [Example 112, N-(trans-4-Trifluoromethyl-cyclohexyl)-2-{2,6-dichloro-3-[(2,2-dimethyl-propionylamino)-methyl]-phenylamino}-6-[N-methyl-N-cyanomethyl-amino]-1-methyl-1H-benzimidazole-5-carboxylic acid amide]: the figures for the IC50 (in assay [1]; at mPGES-1 in A549 cells) were 3 nM and 1 nM, respectively.

For `Cn1c(Nc2c(Cl)ccc(CNC(=O)C(C)(C)C)c2Cl)nc2cc(C(=O)N[C@H]3CC[C@H](C(F)(F)F)CC3)c(N3CCC3)cc21` [Example 96], the results for the IC50 (in assay [1]; at mPGES-1 in A549 cells) were 16 nM and 21 nM, respectively.

Consider `Cn1c(Nc2c(Cl)ccc(CNC(=O)C(C)(C)C(F)(F)F)c2Cl)nc2cc(C(=O)N[C@H]3CC[C@H](C(F)(F)F)CC3)c(N3CCC(C(F)(F)F)CC3)cc21` [Example 250], for which the values for the half-inhibitory concentration (IC50) (in assay [1]; at mPGES-1 in A549 cells) were 1.7 nM and 1 nM, respectively.

With `CC(C)(C)C(=O)NCc1ccc(Cl)c(Nc2nc3cc(C(=O)NCC(F)(F)F)c(N4CCC(F)CC4)cc3[nH]2)c1Cl` [Example 11], the IC50 (in assay [1]; on mPGES-1 in A549 cells) was 3 nM throughout.

As for `Cn1c(Nc2c(Cl)ccc(CNC(=O)C(C)(C)C)c2Cl)nc2cc(C(=O)Nc3ccc(Cl)c(F)c3)c(N3CC4CC4C3)cc21` (centres unmarked) [Example 66], the IC50 in assay [1] is 3 nM; at mPGES-1 in A549 cells, 1.6 nM.

Turning to `Cn1c(Nc2c(Cl)ccc(CNC(=O)C(C)(C)C)c2Cl)nc2cc(C(=O)Nc3cccc(C(F)(F)F)n3)c(N3CCC(C(F)(F)F)CC3)cc21` [Example 55], the values for the 50% inhibitory concentration (IC50) (in assay [1]; on mPGES-1 in A549 cells) were 2 nM and 5 nM, respectively.

In the case of `Cn1c(Nc2c(Cl)ccc(CNC(=O)C(C)(C)C)c2Cl)nc2cc(C(=O)NCC(F)(F)F)c(Nc3ccc(F)c(Cl)c3)cc21` [Example 30], the half-maximal inhibitory concentration (IC50) in assay [1] was 5 nM; at mPGES-1 in A549 cells, 144 nM.

Take `CN(c1cc2c(cc1C(=O)NCC(F)(F)F)nc(Nc1c(Cl)ccc(CNC(=O)C(C)(C)C)c1Cl)n2C)C1CCCC1` [Example 27]: the half-inhibitory concentration (IC50) (in assay [1]; at mPGES-1 in A549 cells) was 2 nM each time.

As to `CC(C)(C)C(=O)NCc1ccc(Cl)c(Nc2nc3cc(C(=O)NCC(F)(F)C(F)(F)F)c(N4CCOCC4)cc3n2CC(F)F)c1Cl` [Example 72], the IC50 (in assay [1]; on mPGES-1 in A549 cells) was 4 nM in each case.

As to `Cn1c(Nc2c(Cl)ccc(CNC(=O)C(C)(C)C)c2Cl)nc2cc(C(=O)NCCC(F)(F)F)c(N3CCC(C(F)(F)F)CC3)cc21` [Example 62], the results for the IC50 (in assay [1]; on mPGES-1 in A549 cells) were 2 nM and under 1 nM, respectively.

On to `Cn1c(Nc2c(Cl)ccc(CNC(=O)C(C)(C)C)c2Cl)nc2cc(C(=O)N[C@H]3CC[C@H](C(F)(F)F)CC3)c(N3CC[C@@H](F)C3)c(F)c21` [Example 145, (R)—N-(trans-4-Trifluoromethyl-cyclohexyl)-2-{2,6-dichloro-3-[(2,2-dimethyl-propionylamino)-methyl]-phenylamino}-6-[3-fluoro-pyrrolidinyl]-1-methyl-7-fluoro-1H-benzimidazole-5-carboxylic acid amide], for which the half-inhibitory concentration (IC50) in assay [1] is 3 nM; on mPGES-1 in A549 cells it was 2.5 nM.

The record behind these values is patent publication US8674113B2, “Compounds” (Boehringer Ingelheim International GmbH, priority 2010, dated 2014).
